Data set [1] in a line: Plasma stability in human sera. The class given is in vitro ADME. The conditions noted are these: for remaining at 0.5 h: plasma, human sera, 30 minutes. The protocol:
(§1) The plasma and chemical stability of various cargo/carrier peptide constructs described in Example 1 was tested. Plasma stability of the compounds was tested using both human and rat sera and the amount of starting material was determined after 30 minutes of treatment. Chemical stability was evaluated by determining the amount of starting material remaining after 9 days of treatment.
(§2) The plasma stability of various cargo/carrier peptide constructs described in Example 1 was tested using both human and rat sera and the amount of starting material was determined over time to 30 minutes of treatment. The time course data for cargo/carrier peptides KP-1586, KP-1630, and KP-1631 is shown in FIG. 3, the data for peptides KP-1632, KP-1633, and KP-1634 is shown in FIG. 4, and the data for peptides KP-1635, KP-1636, and KP-1637 is shown in FIG. 5.

The nature of data set [2]: Chemical stability of cargo/carrier peptide constructs. The class given is physicochemical. The protocol:
as §1
The chemical stability of various cargo/carrier peptide constructs described in Example 1 was tested by examining the relative concentration of the peptides over a time period of more than 200 hours at 37° C.

Data set [3] is described as follows: Plasma stability in rat sera. The class given is in vitro ADME. Particulars: 30 minutes. The protocol: as §1, §2
Data set [4] relates to carrageenan-induced mechanical hyperalgesia. In words: Carrageenan inflammatory pain model, Randall-Selitto paw-withdrawal test. The class given is in vivo, rat. The protocol:
The nociceptive flexior reflex was quantified on lightly restrained rats by using a Basile Analgesymeter (Randall-Selitto test). Inflammatory hyperlagesia was induced by injection of Carr (1%, 5 uL, i.d.), which was injected unilaterally to the dorsum of the hindpaw one-hour prior to compound administration. The εPKC inhibitor peptide (εV1-2) was injected via systemic routes.
The nociceptive flexior reflex was quantified on lightly restrained rats by using a Basile Analgesymeter (Randall-Selitto test). Inflammatory hyperlagesia was induced by injection of Carr (1%, 5 μL, i.d.), which was injected unilaterally to the dorsum of the hindpaw one-hr prior to compound administration. The εPKC inhibitor peptide (εV1-2) was injected via systemic routes.
The rat carrageenan model has been extensively used to evaluate the response to modulators of inflammatory pain. In the model used for the studies described below, a single 5 microL injection of a 1% solution of carrageenan into the plantar surface of the right hindpaw was used to elicit an inflammatory response resulting in local edema and mechanical hyperalgesia. The mechanical hyperalgesia was quantitated as previously described using measurements of the nociceptive flexion reflex (Randall-Selitto paw-withdrawal test) in response to mechanical painful stimulation at the site of carrageenan injection. […] In the absence of further treatment, the PWT remained stable at ˜55 g for several hours, making it possible to use this model to evaluate the time-course of the response to treatment over the course of at least six hours after the establishment of the disease state.

Where no end group is shown, it is not given here.

As for `CC(=O)N[C@@H](CCC(=O)O)C(=O)N[C@@H](C)C(=O)N[C@H](C(=O)N[C@@H](CO)C(=O)N[C@@H](CC(C)C)C(=O)N[C@@H](CCCCN)C(=O)N1CCC[C@H]1C(=O)N[C@H](C(=O)NCC(=O)NCC(=O)NCCCC[C@H](NC(=O)CNC(=O)CNC(=O)[C@@H](NC(=O)[C@@H]1CCCN1C(=O)[C@H](CCCCN)NC(=O)[C@H](CC(C)C)NC(=O)[C@H](CO)NC(=O)[C@@H](NC(=O)[C@H](C)NC(=O)[C@H](CCC(=O)O)NC(C)=O)C(C)C)[C@@H](C)O)C(=O)N[C@@H](CSSC[C@H](NC(C)=O)C(=O)N[C@@H](Cc1ccc(O)cc1)C(=O)NCC(=O)N[C@@H](CCCNC(=N)N)C(=O)N[C@@H](CCCCN)C(=O)N[C@@H](CCCCN)C(=O)N[C@@H](CCCNC(=N)N)C(=O)N[C@@H](CCCNC(=N)N)C(=O)N[C@@H](CCC(N)=O)C(=O)N[C@@H](CCCNC(=N)N)C(=O)N[C@@H](CCCNC(=N)N)C(=O)N[C@@H](CCCNC(=N)N)C(N)=O)C(=O)O)[C@@H](C)O)C(C)C` [KP-1634, [Ac-E-A-V-S-L-K-P-T-G-G]-K-C], the figures for the fraction remaining at 0.5 h in data set [1] and in data set [3] were 87% and 106%, respectively. The fraction remaining at 216 h in data set [2] (9 days of treatment) is 82%.

As to `CC(=O)N[C@@H](CCSSCC[C@H](NC(C)=O)C(=O)N[C@@H](CCC(=O)O)C(=O)N[C@@H](C)C(=O)N[C@H](C(=O)N[C@@H](CO)C(=O)N[C@@H](CC(C)C)C(=O)N[C@@H](CCCCN)C(=O)N1CCC[C@H]1C(=O)N[C@H](C(N)=O)[C@@H](C)O)C(C)C)C(=O)N[C@@H](Cc1ccc(O)cc1)C(=O)NCC(=O)N[C@@H](CCCNC(=N)N)C(=O)N[C@@H](CCCCN)C(=O)N[C@@H](CCCCN)C(=O)N[C@@H](CCCNC(=N)N)C(=O)N[C@@H](CCCNC(=N)N)C(=O)N[C@@H](CCC(N)=O)C(=O)N[C@@H](CCCNC(=N)N)C(=O)N[C@@H](CCCNC(=N)N)C(=O)N[C@@H](CCCNC(=N)N)C(=O)O` [KP-1638, Ac-hC-E-A-V-S-L-K-P-T-NH2], the amount remaining at 216 h in data set [2] (9 days of treatment) turned out to be 100%.

Regarding E-A-V-S-L-K-P-T (EAVSLKPT) [εV1-2], in data set [4] (bilateral lumbar sympathectomy plus suprarenal ganglionectomy 7 days before), the “Anti-hyperalgesic effect after surgical sympathectomy” value is given as “completely abolished anti-hyperalgesic effects”. Besides, the “Paw-withdrawal threshold (PWT)” value in data set [4] (intradermal and subcutaneous injection, FIG. 14) is given as “Increases in paw-withdrawal threshold (PWT)”. Further, the Carr-induced mechanical hyperalgesia result in data set [4] (subcutaneous injection, ipsilateral or contralateral hindlimb or dorsal trunk) was “dose-dependently suppressed Carr-induced mechanical hyperalgesia”. Also, the “Carr-induced mechanical hyperalgesia after nerve transection” value in data set [4] (subcutaneous, distal to transection of sciatic and saphenous nerves, contralateral paw) is listed as “no longer suppression of Carr-induced mechanical hyperalgesia”.

Take `CC(=O)N[C@@H](CSSC[C@H](NC(C)=O)C(=O)N[C@@H](CC(C)C)C(=O)N[C@@H](CCCCN)C(=O)N1CCC[C@H]1C(=O)N[C@H](C(=O)N[C@@H](C)C(=O)N[C@@H](Cc1c[nH]c2ccccc12)C(=O)N[C@@H](CO)C(=O)N[C@@H](CC(C)C)C(=O)N[C@@H](CCCNC(=N)N)C(N)=O)[C@@H](C)O)C(=O)N[C@@H](Cc1ccc(O)cc1)C(=O)NCC(=O)N[C@@H](CCCNC(=N)N)C(=O)N[C@@H](CCCCN)C(=O)N[C@@H](CCCCN)C(=O)N[C@@H](CCCNC(=N)N)C(=O)N[C@@H](CCCNC(=N)N)C(=O)N[C@@H](CCC(N)=O)C(=O)N[C@@H](CCCNC(=N)N)C(=O)N[C@@H](CCCNC(=N)N)C(=O)N[C@@H](CCCNC(=N)N)C(N)=O` [KP-1631, Ac-C-L-K-P-T-A-W-S-L-R-NH2]: the share remaining at 0.5 h in data set [1] came to 49%; in data set [3] it was 67%. Besides, the amount remaining at 216 h in data set [2] (9 days of treatment) was found to be 76%.

For the compound `CC(=O)N[C@@H](CSSC[C@H](NC(C)=O)C(=O)N[C@@H](CCC(=O)O)C(=O)N[C@@H](C)C(=O)N[C@H](C(=O)N[C@@H](CO)C(=O)N[C@@H](CC(C)C)C(=O)N[C@@H](CCCCN)C(=O)N1CCC[C@H]1C(=O)N[C@H](C(N)=O)[C@@H](C)O)C(C)C)C(=O)N[C@@H](Cc1ccc(O)cc1)C(=O)NCC(=O)N[C@@H](CCCNC(=N)N)C(=O)N[C@@H](CCCCN)C(=O)N[C@@H](CCCCN)C(=O)N[C@@H](CCCNC(=N)N)C(=O)N[C@@H](CCCNC(=N)N)C(=O)N[C@@H](CCC(N)=O)C(=O)N[C@@H](CCCNC(=N)N)C(=O)N[C@@H](CCCNC(=N)N)C(=O)N[C@@H](CCCNC(=N)N)C(N)=O` [KP-1630, Ac-C-E-A-V-S-L-K-P-T-NH2], the “Plasma stability, time course to 30 minutes” value in data set [1] (human and rat sera, FIGS. 3-5) was “little impact on plasma stability”. Further, the values for the fraction remaining at 0.5 h in data set [1] and in data set [3] were 76% and 77%, respectively. For the same compound, in data set [2] (9 days of treatment), the amount remaining at 216 h was determined as 67%.

As to `CC(=O)N[C@@H](CSSC[C@H](N)C(=O)N[C@@H](CCC(=O)O)C(=O)N[C@@H](C)C(=O)N[C@H](C(=O)N[C@@H](CO)C(=O)N[C@@H](CC(C)C)C(=O)N[C@@H](CCCCN)C(=O)N1CCC[C@H]1C(=O)N[C@H](C(=O)O)[C@@H](C)O)C(C)C)C(=O)N[C@@H](Cc1ccc(O)cc1)C(=O)NCC(=O)N[C@@H](CCCNC(=N)N)C(=O)N[C@@H](CCCCN)C(=O)N[C@@H](CCCCN)C(=O)N[C@@H](CCCNC(=N)N)C(=O)N[C@@H](CCCNC(=N)N)C(=O)N[C@@H](CCC(N)=O)C(=O)N[C@@H](CCCNC(=N)N)C(=O)N[C@@H](CCCNC(=N)N)C(=O)N[C@@H](CCCNC(=N)N)C(N)=O` [KP-1586, C-E-A-V-S-L-K-P-T], the values for the share remaining at 0.5 h in data set [1] and in data set [3] were 85% and 77%, respectively. The fraction remaining at 216 h in data set [2] (9 days of treatment) was 57%.

On to `CC(C)C[C@H](NC(=O)[C@H](CO)NC(=O)[C@@H](NC(=O)[C@H](C)NC(=O)[C@H](CCC(=O)O)NC(=O)[C@@H](N)CSSC[C@H](N)C(=O)N[C@@H](Cc1ccc(O)cc1)C(=O)NCC(=O)N[C@@H](CCCNC(=N)N)C(=O)N[C@@H](CCCCN)C(=O)N[C@@H](CCCCN)C(=O)N[C@@H](CCCNC(=N)N)C(=O)N[C@@H](CCCNC(=N)N)C(=O)N[C@@H](CCC(N)=O)C(=O)N[C@@H](CCCNC(=N)N)C(=O)N[C@@H](CCCNC(=N)N)C(=O)N[C@@H](CCCNC(=N)N)C(=O)O)C(C)C)C(=O)N[C@@H](CCCCN)C(=O)N1CCC[C@H]1C(=O)N[C@H](C(=O)O)[C@@H](C)O` [KP-1636, C-E-A-V-S-L-K-P-T, reference compound], for which the share remaining at 0.5 h in data set [1] and in data set [3] was 79% throughout. In data set [2] (9 days of treatment), the fraction remaining at 216 h came to 27%.

Turning to `COc1ccc2c(c1)c(CC(=O)O)c(C)n2C(=O)c1ccc(Cl)cc1` [indomethacin, reference compound], in data set [4] (oral, 10 mg/kg, after end of 5-hr IV infusion of KAI-1678), the Carrageenan-induced mechanical hyperalgesia result is on record as “completely reversed the mechanical hyperalgesia”.

As to `CC(=O)N[C@@H](CSSC[C@@H](NC(=O)[C@@H](CCC(=O)O)NC(=O)[C@@H](C)NC(=O)[C@H](NC(=O)[C@@H](CO)NC(=O)[C@@H](CC(C)C)NC(=O)[C@@H](CCCCN)NC(=O)[C@H]1CCCN1C(=O)[C@H](N)[C@H](C)O)C(C)C)C(=O)O)C(=O)N[C@@H](Cc1ccc(O)cc1)C(=O)NCC(=O)N[C@@H](CCCNC(=N)N)C(=O)N[C@@H](CCCCN)C(=O)N[C@@H](CCCCN)C(=O)N[C@@H](CCCNC(=N)N)C(=O)N[C@@H](CCCNC(=N)N)C(=O)N[C@@H](CCC(N)=O)C(=O)N[C@@H](CCCNC(=N)N)C(=O)N[C@@H](CCCNC(=N)N)C(=O)N[C@@H](CCCNC(=N)N)C(N)=O` [KP-1635, t-p-k-l-s-v-a-e-c], the share remaining at 0.5 h in data set [1] stood at 63%; in data set [3], 72%. Besides, the fraction remaining at 216 h in data set [2] (9 days of treatment) came out at 95%.

In the case of `CC(=O)N[C@@H](CCSSC[C@H](NC(C)=O)C(=O)N[C@@H](CCC(=O)O)C(=O)N[C@@H](C)C(=O)N[C@H](C(=O)N[C@@H](CO)C(=O)N[C@@H](CC(C)C)C(=O)N[C@@H](CCCCN)C(=O)N1CCC[C@H]1C(=O)N[C@H](C(N)=O)[C@@H](C)O)C(C)C)C(=O)N[C@@H](Cc1ccc(O)cc1)C(=O)NCC(=O)N[C@@H](CCCNC(=N)N)C(=O)N[C@@H](CCCCN)C(=O)N[C@@H](CCCCN)C(=O)N[C@@H](CCCNC(=N)N)C(=O)N[C@@H](CCCNC(=N)N)C(=O)N[C@@H](CCC(N)=O)C(=O)N[C@@H](CCCNC(=N)N)C(=O)N[C@@H](CCCNC(=N)N)C(=O)N[C@@H](CCCNC(=N)N)C(=O)O` [KP-1637, Ac-C-E-A-V-S-L-K-P-T-NH2], the amount remaining at 0.5 h was 60% in data set [1] and 78% in data set [3]. The “Chemical Stability % Remaining at 9 days” value in data set [2] (9 days of treatment) is given as 100%. For the same compound, the “Chemical stability, time course of relative concentration” value in data set [2] (more than 200 hours at 37° C., FIG. 6) is listed as “marked stability”.

Consider “EAVSLKPTGGYGRKKRRQRRR-NH2 [KP-1633, E-A-V-S-L-K-P-T-G-G-TaT-NH2]”, for which the results for the fraction remaining at 0.5 h in data set [1] and in data set [3] were 83% and 77%, respectively. The share remaining at 216 h in data set [2] (9 days of treatment) turned out to be 99%.

For the origin of these results see patent US8492346B2, “Methods of use of epsilon inhibitor compounds for the attenuation of pain” (KAI Pharmaceuticals, Inc., priority 2007, dated 2013).
